Results from patent US20260014285A1, “POLYPEPTIDE COMPOUND, AND COMPLEX AND USE THEREOF” (HANGZHOU HEALTHYTIDE BIOTECHNOLOGY CO., LTD., priority 2022, published 2026).
Non-standard residues stand in square brackets, D forms with d. Residues, ends and D or L forms follow the SMILES beside them. ξ: configuration not given here. *: point of attachment. DOTA = O=C(O)CN1CCN(CC(=O)O)CCN(CC(=O)*)CCN(CC(=O)O)CC1; NOTA = O=C(O)CN1CCN(CC(=O)O)CCN(CC(=O)*)CC1; PEG4 = NCCOCCOCCOCCOCCC(=O)O; ξIle = CC[C@H](C)C(N)C(=O)O; Pip = O=C(O)[C@@H]1CCCCN1; ξN = NC(=O)CC(N)C(=O)O; AEEA = NCCOCCOCC(=O)O; Aib = CC(C)(N)C(=O)O; AEA = NCCOCC(=O)O

Key:
integrin α5β1 = integrin α5β1 (Homo sapiens, UniProt P05556+P08648); assay: Target affinity test by surface plasmon resonance (SPR), integrin α5β1; type: binding; settings: for Kd: SPR (Biacore T200), CM5 chip, 25° C., KD=Kd/Ka; for affinity constant (KD) to integrin α5β1, in words: SPR
Experimental: (§1) Surface plasmon resonance (SPR) technique was used to test the affinity of the compound in the examples to the target protein integrin α5β1. Specifically, the following operations were performed.
(§2) The affinity constants (KD) of the compounds to the target proteins integrin α5β1, αvβ3, and αvβ5 were calculated according to the formula of KD=Kd/Ka (the lower the value of KD, the higher the affinity of the compounds of the examples to the target protein integrin α5β1).

integrin αvβ3 = integrin αvβ3 (Homo sapiens, UniProt P05106+P06756); assay: Target affinity test by surface plasmon resonance (SPR), integrin αvβ3; type: binding; settings: for Kd: SPR (Biacore T200), CM5 chip, 25° C., KD=Kd/Ka; for affinity constant (KD) to integrin αvβ3, in words: SPR
Experimental: as §1, §2

in vivo [1] = assay: in vivo; set-up: species or system mice; settings: naked (nude), mouse, iv, 100 uCi, total radioactivity
Experimental: (§3) For example, labeling TM4 with radioactive ^68Ga: An aqueous solution of TM4 (DOTA-Asn-Asp-Val-Ile-Asn-OH) (20 μg) was added to the prepared ^68GaCl3 solution, and the pH was adjusted to 3-5 with aqueous sodium acetate and acetic acid. This system was reacted at 70-95° C. for 15 min, and then purified after the reaction was completed to obtain a labeled solution of ^68Ga-DOTA-Asn-Asp-Val-Ile-Asn-OH (^68Ga-TM4).
(§4) All compounds were labeled with ^68Ga in the same way as described above.
Approximately 100 μCi of ^68Ga injection was injected into the tail vein of naked mice inoculated with SKOV3.

in vivo [2] = assay: in vivo; set-up: species or system mice; settings: naked (nude), mouse, iv, 100 uCi, total radioactivity; remark: listed apart in the source
Experimental: as §3, §4
Approximately 100 μCi of ^68Ga injection was injected into the tail vein of naked mice inoculated with MC38.

in vivo [3] = assay: in vivo; set-up: species or system mice; settings: M-NSG, mouse, iv, 100 uCi, total radioactivity
Experimental: as §3, §4
Approximately 100 μCi of ^68Ga injection was injected into the tail vein of M-NSG mice inoculated with H1975. […] Table 6 was obtained by image post-processing.

integrin α5β1, sequence (P08648 42-995 limits assumed): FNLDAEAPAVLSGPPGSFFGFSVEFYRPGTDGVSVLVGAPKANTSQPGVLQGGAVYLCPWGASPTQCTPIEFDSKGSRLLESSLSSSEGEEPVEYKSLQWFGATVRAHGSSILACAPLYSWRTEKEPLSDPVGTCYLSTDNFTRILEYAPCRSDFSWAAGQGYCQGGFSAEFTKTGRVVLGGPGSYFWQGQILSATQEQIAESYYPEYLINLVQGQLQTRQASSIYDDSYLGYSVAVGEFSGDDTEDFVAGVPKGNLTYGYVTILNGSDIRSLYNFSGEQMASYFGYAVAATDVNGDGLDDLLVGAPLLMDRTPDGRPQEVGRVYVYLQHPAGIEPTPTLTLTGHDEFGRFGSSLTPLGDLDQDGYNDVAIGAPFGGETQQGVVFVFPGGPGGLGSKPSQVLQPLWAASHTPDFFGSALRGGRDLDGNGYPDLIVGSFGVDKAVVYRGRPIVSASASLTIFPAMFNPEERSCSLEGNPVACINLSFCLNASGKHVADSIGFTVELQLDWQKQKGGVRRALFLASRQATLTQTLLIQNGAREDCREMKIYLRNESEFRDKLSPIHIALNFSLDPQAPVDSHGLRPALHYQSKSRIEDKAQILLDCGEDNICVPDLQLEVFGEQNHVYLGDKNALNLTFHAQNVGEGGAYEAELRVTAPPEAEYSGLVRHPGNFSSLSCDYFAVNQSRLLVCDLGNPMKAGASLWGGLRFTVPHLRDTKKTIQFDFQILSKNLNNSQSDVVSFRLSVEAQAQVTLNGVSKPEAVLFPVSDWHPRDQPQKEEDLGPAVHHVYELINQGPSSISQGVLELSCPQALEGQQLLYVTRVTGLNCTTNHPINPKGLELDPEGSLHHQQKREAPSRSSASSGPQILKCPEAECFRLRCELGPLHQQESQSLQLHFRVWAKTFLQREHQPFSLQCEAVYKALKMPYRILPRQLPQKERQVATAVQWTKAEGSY
integrin α5β1, sequence (P05556 21-728 limits assumed): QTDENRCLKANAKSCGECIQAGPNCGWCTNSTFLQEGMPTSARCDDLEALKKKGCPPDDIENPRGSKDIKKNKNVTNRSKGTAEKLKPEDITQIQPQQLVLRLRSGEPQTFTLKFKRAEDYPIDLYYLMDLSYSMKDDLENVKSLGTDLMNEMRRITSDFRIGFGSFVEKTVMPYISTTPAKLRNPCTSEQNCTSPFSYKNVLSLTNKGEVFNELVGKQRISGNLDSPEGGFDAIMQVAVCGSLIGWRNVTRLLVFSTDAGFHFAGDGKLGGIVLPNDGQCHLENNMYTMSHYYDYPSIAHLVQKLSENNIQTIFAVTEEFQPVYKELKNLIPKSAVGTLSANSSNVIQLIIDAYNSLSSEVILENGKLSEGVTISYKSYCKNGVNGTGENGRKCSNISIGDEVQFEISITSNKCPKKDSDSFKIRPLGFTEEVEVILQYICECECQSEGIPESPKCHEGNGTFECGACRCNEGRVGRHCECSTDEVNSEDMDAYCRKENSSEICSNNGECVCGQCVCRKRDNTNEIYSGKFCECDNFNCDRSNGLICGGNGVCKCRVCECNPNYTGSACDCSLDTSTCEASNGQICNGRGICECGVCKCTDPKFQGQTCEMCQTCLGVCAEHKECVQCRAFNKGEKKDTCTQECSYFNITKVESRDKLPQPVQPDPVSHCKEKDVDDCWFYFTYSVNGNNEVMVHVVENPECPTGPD
integrin αvβ3, sequence (P06756 31-992 limits assumed): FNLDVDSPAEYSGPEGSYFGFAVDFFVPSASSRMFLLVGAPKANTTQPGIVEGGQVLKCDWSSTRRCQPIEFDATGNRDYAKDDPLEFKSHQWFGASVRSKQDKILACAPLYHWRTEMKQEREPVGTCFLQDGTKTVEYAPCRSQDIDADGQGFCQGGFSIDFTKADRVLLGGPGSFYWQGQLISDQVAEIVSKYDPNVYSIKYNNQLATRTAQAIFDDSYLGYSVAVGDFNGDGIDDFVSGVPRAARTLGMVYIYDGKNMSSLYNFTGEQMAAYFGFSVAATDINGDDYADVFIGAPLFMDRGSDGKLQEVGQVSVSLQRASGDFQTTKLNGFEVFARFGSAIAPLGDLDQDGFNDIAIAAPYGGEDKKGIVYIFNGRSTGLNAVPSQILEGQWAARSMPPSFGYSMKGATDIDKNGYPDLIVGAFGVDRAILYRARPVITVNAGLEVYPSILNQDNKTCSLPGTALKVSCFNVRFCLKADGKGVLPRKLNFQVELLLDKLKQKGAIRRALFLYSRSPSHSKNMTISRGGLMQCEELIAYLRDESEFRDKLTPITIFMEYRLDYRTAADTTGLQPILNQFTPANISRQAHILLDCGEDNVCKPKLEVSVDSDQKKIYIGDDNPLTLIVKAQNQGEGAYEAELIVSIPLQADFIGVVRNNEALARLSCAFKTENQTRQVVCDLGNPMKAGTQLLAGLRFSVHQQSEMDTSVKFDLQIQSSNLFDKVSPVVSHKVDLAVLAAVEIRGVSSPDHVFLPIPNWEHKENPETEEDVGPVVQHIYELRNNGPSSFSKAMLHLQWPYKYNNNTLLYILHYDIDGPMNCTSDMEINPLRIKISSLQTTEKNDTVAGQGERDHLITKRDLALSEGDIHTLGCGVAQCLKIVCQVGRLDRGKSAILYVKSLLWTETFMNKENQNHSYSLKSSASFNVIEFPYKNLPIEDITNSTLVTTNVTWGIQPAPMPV
integrin αvβ3, sequence (P05106 27-718 limits assumed): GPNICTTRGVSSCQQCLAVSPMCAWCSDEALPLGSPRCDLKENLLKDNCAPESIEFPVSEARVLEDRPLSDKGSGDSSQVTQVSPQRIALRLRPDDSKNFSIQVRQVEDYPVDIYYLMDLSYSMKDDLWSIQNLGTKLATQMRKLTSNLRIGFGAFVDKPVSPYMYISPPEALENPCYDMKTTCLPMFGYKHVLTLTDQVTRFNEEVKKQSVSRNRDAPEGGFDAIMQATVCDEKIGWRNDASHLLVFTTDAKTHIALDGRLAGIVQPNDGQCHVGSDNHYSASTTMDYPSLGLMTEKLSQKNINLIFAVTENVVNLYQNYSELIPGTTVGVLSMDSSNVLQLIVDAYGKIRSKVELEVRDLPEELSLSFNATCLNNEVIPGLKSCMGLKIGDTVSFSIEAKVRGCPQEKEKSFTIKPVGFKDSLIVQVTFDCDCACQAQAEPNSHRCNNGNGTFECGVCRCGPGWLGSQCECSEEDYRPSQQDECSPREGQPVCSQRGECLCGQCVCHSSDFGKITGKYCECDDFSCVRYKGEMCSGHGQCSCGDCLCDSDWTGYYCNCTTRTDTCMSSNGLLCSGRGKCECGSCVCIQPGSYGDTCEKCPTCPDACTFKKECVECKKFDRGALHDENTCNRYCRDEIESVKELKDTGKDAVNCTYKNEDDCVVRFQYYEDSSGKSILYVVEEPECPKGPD

For `CC[C@H](C)[C@H](NC(=O)[C@@H](NC(=O)[C@H](CC(=O)O)NC(=O)[C@H](CC(N)=O)NC(=O)[C@H](CC(=O)O)NC(=O)CNC(=O)[C@H](CCCNC(=N)N)NC(=O)CCOCCOCCOCCOCCNC(=O)CN1CCN(CC(=O)O)CCN(CC(=O)O)CCN(CC(=O)O)CC1)C(C)C)C(=O)N[C@@H](CC(N)=O)C(=O)O` [TM7] ({DOTA-PEG4}-RGDNDVIN-OH), the Kd (integrin α5β1) was 43.9 nM.
For `CC[C@H](C)[C@H](NC(=O)C(C)(C)NC(=O)[C@H](CC(=O)O)NC(=O)[C@H](CC(N)=O)NC(=O)CN1CCN(CC(=O)O)CCN(CC(=O)O)CCN(CC(=O)O)CC1)C(=O)N[C@@H](CC(N)=O)C(=O)O` [TM11] ({DOTA}-ND[Aib]IN-OH), the “affinity constant (KD) to integrin α5β1, in words” value (integrin α5β1) was “better than nM level”, the Kd (integrin α5β1) was 0.0681 nM and the Kd (integrin αvβ3) was 190 nM.
With `CC[C@H](C)[C@H](NC(=O)C(C)(C)NC(=O)[C@H](CC(=O)O)NC(=O)[C@H](CC(N)=O)NC(=O)CN1CCN(CC(=O)O)CCN(CC(=O)O)CCN(CC(=O)O)CC1)C(=O)N[C@@H](CC(N)=O)C(=O)O` [^68Ga-TM11, metal not drawn] ({DOTA}-ND[Aib]IN-OH) the tissue uptake at 1 h (in vivo [1]; % ID/g Bladder) was 4.7 %ID/g, the tissue uptake at 1 h (in vivo [1]; % ID/g Bone) was 0.04 %ID/g and the tissue uptake at 1 h (in vivo [1]; % ID/g Brain) was 0.09 %ID/g. The tissue uptake at 1 h (in vivo [1]; % ID/g Heart) was 0.11 %ID/g, the tissue uptake at 1 h (in vivo [1]; % ID/g Intestine) was 0.33 %ID/g and the tissue uptake at 1 h (in vivo [1]; % ID/g Kidney) was 0.52 %ID/g. The tissue uptake at 1 h (in vivo [1]; % ID/g Liver) was 0.15 %ID/g, the tissue uptake at 1 h (in vivo [1]; % ID/g Lung) was 0.08 %ID/g and the tissue uptake at 1 h (in vivo [1]; % ID/g Muscle) was 0.05 %ID/g. The tissue uptake at 1 h (in vivo [1]; % ID/g Tumor) was 0.42 %ID/g, the tissue uptake at 1 h (in vivo [2]; % ID/g Bladder) was 18.9 %ID/g and the tissue uptake at 1 h (in vivo [2]; % ID/g Bone) was 0.08 %ID/g. It also gave a tissue uptake at 1 h (in vivo [2]; % ID/g Brain) of 0.18 %ID/g, a tissue uptake at 1 h (in vivo [2]; % ID/g Heart) of 0.25 %ID/g and a tissue uptake at 1 h (in vivo [2]; % ID/g Intestine) of 0.59 %ID/g. The tissue uptake at 1 h (in vivo [2]; % ID/g Kidney) was 1.2 %ID/g, the tissue uptake at 1 h (in vivo [2]; % ID/g Liver) was 0.29 %ID/g and the tissue uptake at 1 h (in vivo [2]; % ID/g Lung) was 0.15 %ID/g. For the same compound, the tissue uptake at 1 h (in vivo [2]; % ID/g Muscle) was 0.08 %ID/g, the tissue uptake at 1 h (in vivo [2]; % ID/g Tumor) was 0.73 %ID/g and the tissue uptake at 1 h (in vivo [3]; % ID/g Bone) was 0.27 %ID/g. It also gave a tissue uptake at 1 h (in vivo [3]; % ID/g Brain) of 0.21 %ID/g, a tissue uptake at 1 h (in vivo [3]; % ID/g Heart) of 0.53 %ID/g and a tissue uptake at 1 h (in vivo [3]; % ID/g Intestine) of 0.5 %ID/g. The tissue uptake at 1 h (in vivo [3]; % ID/g Kidney) was 4 %ID/g, the tissue uptake at 1 h (in vivo [3]; % ID/g Liver) was 0.43 %ID/g and the tissue uptake at 1 h (in vivo [3]; % ID/g Lung) was 0.31 %ID/g. It also gave a tissue uptake at 1 h (in vivo [3]; % ID/g Muscle) of 0.31 %ID/g and a tissue uptake at 1 h (in vivo [3]; % ID/g Tumor) of 0.94 %ID/g.
With `CC[C@H](C)[C@H](NC(=O)[C@@H](NC(=O)[C@H](CC(=O)O)NC(=O)[C@H](CC(N)=O)NC(=O)CCOCCOCCOCCOCCNC(=O)CN1CCN(CC(=O)O)CCN(CC(=O)O)CCN(CC(=O)O)CC1)C(C)C)C(=O)N[C@@H](CC(N)=O)C(=O)O` [TM5] ({DOTA-PEG4}-NDVIN-OH) the “affinity constant (KD) to integrin α5β1, in words” value (integrin α5β1) was “better than nM level” and the Kd (integrin α5β1) was 2.77 nM.
For `CC[C@H](C)[C@H](NC(=O)[C@@H]1CCCCN1C(=O)[C@H](CC(=O)O)NC(=O)[C@H](CC(N)=O)NC(=O)CN1CCN(CC(=O)O)CCN(CC(=O)O)CCN(CC(=O)O)CC1)C(=O)NC(CC(N)=O)C(=O)O` (stereo partly shown) [TM9] ({DOTA}-ND[Pip]I[ξN]-OH), the “affinity constant (KD) to integrin α5β1, in words” value (integrin α5β1) was “better than nM level”, the Kd (integrin α5β1) was 5.58 nM and the “affinity constant (KD) to integrin αvβ3, in words” value (integrin αvβ3) was “nM level”. For the same compound, the Kd (integrin αvβ3) was 1.8 nM.
Work on `CC[C@H](C)[C@H](NC(=O)[C@@H](NC(=O)[C@H](CC(=O)O)NC(=O)[C@H](CC(N)=O)NC(=O)[C@H](CC(=O)O)NC(=O)CNC(=O)[C@H](CCCNC(=N)N)NC(=O)CN1CCN(CC(=O)O)CCN(CC(=O)O)CCN(CC(=O)O)CC1)C(C)C)C(=O)N[C@@H](CC(N)=O)C(=O)O` [TM6] ({DOTA}-RGDNDVIN-OH) yielded a Kd (integrin α5β1) of 239 nM.
For `CC[C@H](C)C(NC(=O)[C@@H](NC(=O)[C@H](CC(=O)O)NC(=O)[C@H](CC(=O)O)NC(=O)CNC(=O)[C@H](CCCNC(=N)N)NC(=O)CN1CCN(CC(=O)O)CCN(CC(=O)O)CC1)C(C)C)C(=O)N[C@@H](CC(N)=O)C(=O)N[C@@H](Cc1ccccc1)C(=O)O` (stereo partly shown) [TM3] ({NOTA}-RGDDV[ξIle]NF-OH), the “affinity constant (KD) to integrin α5β1, in words” value (integrin α5β1) was “better than nM level” and the Kd (integrin α5β1) was 1.92 nM.
In the case of `CC[C@H](C)C(NC(=O)[C@@H](NC(=O)[C@H](CC(=O)O)NC(=O)[C@H](CC(N)=O)NC(=O)[C@H](CC(=O)O)NC(=O)CNC(=O)[C@H](CCCNC(=N)N)NC(=O)COCCNC(=O)CN1CCN(CC(=O)O)CCN(CC(=O)O)CCN(CC(=O)O)CC1)C(C)C)C(=O)N[C@@H](CC(N)=O)C(=O)O` (stereo partly shown) [TM15] ({DOTA-AEA}-RGDNDV[ξIle]N-OH), the “affinity constant (KD) to integrin α5β1, in words” value (integrin α5β1) is reported as “better than nM level”, the Kd (integrin α5β1) is reported as 0.992 nM and the “affinity constant (KD) to integrin αvβ3, in words” value (integrin αvβ3) is reported as “nM level”. For the same compound, the Kd (integrin αvβ3) was 1.69 nM.
With `CC[C@H](C)C(NC(=O)[C@@H](NC(=O)[C@H](CC(=O)O)NC(=O)[C@H](CC(N)=O)NC(=O)COCCOCCNC(=O)CN1CCN(CC(=O)O)CCN(CC(=O)O)CCN(CC(=O)O)CC1)C(C)C)C(=O)N[C@@H](CC(N)=O)C(=O)O` (stereo partly shown) [TM14] ({DOTA-AEEA}-NDV[ξIle]N-OH) the “affinity constant (KD) to integrin α5β1, in words” value (integrin α5β1) was “better than nM level”, the Kd (integrin α5β1) was 9.43 nM and the Kd (integrin αvβ3) was 36.7 nM.
For `CC[C@H](C)[C@H](NC(=O)[C@@H](NC(=O)[C@H](CC(=O)O)NC(=O)[C@H](CC(N)=O)NC(=O)CN1CCN(CC(=O)O)CCN(CC(=O)O)CCN(CC(=O)O)CC1)C(C)C)C(=O)N[C@@H](CC(N)=O)C(=O)O` [TM4, DOTA-Asn-Asp-Val-Ile-Asn-OH] ({DOTA}-NDVIN-OH), the Kd (integrin α5β1) was 16 nM, the “affinity constant (KD) to integrin αvβ3, in words” value (integrin αvβ3) was “nM level” and the Kd (integrin αvβ3) was 2.88 nM.
With `CC[C@H](C)[C@H](NC(=O)[C@@H](NC(=O)[C@H](CC(=O)O)NC(=O)[C@H](CC(N)=O)NC(=O)COCCNC(=O)CN1CCN(CC(=O)O)CCN(CC(=O)O)CCN(CC(=O)O)CC1)C(C)C)C(=O)N[C@@H](CC(N)=O)C(=O)O` [TM13] ({DOTA-AEA}-NDVIN-OH) the Kd (integrin α5β1) was 1450 nM, the “affinity constant (KD) to integrin αvβ3, in words” value (integrin αvβ3) was “nM level” and the Kd (integrin αvβ3) was 0.646 nM.
